Source: ChEMBL document CHEMBL3627713, “Triazole linked mono carbonyl curcumin-isatin bifunctional hybrids as novel anti tubulin agents: Design, synthesis, biological evaluation and molecular modeling studies” (Bioorg Med Chem, 2015)
Calls of active or inactive are those of the source. The calls are words filed in the database; no cut-off is given here.

Experiments:
[1] = test system: HeLa; assay: Cytotoxicity against human HeLa cells assessed as growth inhibition at 50 uM after 48 hrs by sulforhodamine B assay relative to control; assay type: functional; details: read-out: GI
[2] = test system: CAKI-1; assay: Cytotoxicity against human Caki1 cells assessed as growth inhibition at 50 uM after 48 hrs by sulforhodamine B assay relative to control; assay type: functional; details: CAKI-1, 48 h, read-out: GI
[3] = test system: HCT-116; assay: Disruption of microtubule organization in human HCT116 cells at 5 uM after 48 hrs by DAPI staining-based laser scanning confocal microscopic analysis; assay type: cell-based
[4] = test system: A549; assay: Cytotoxicity against human A549 cells assessed as growth inhibition at 50 uM after 48 hrs by sulforhodamine B assay relative to control; assay type: functional; details: A549, 48 h, read-out: GI
[5] = test system: HCT-116; assay: Cytotoxicity against human HCT116 cells assessed as growth inhibition at 50 uM after 48 hrs by sulforhodamine B assay relative to control; assay type: functional; details: HCT-116, 48 h, read-out: GI
[6] = test system: COLO 205; assay: Cytotoxicity against human COLO205 cells assessed as growth inhibition at 50 uM after 48 hrs by sulforhodamine B assay relative to control; assay type: functional; details: COLO 205, 48 h, read-out: GI
[7] = test system: PC-3; assay: Cytotoxicity against human PC3 cells assessed as growth inhibition after 48 hrs by sulforhodamine B assay; assay type: functional, cell-based; details: PC-3, 48 h
[8] = test system: THP-1; assay: Cytotoxicity against human THP1 cells assessed as growth inhibition after 48 hrs by sulforhodamine B assay; assay type: functional, cell-based; details: THP-1, 48 h
[9] = molecular target: Tubulin; assay: Inhibition of tubulin (unknown origin) polymerization after 1 hr by ELISA plate reader analysis; assay type: protein-complex assay, Homo sapiens
[10] = test system: HCT-116; assay: Cytotoxicity against human HCT116 cells assessed as growth inhibition after 48 hrs by sulforhodamine B assay; assay type: functional, cell-based; details: HCT-116, 48 h
[11] = Cytotoxicity against human MIAPaCa2 cells assessed as growth inhibition at 50 uM after 48 hrs by sulforhodamine B assay relative to control; assay type: functional; details: MIA PaCa-2, 48 h, read-out: GI
[12] = test system: THP-1; assay: Cytotoxicity against human THP1 cells assessed as growth inhibition at 50 uM after 48 hrs by sulforhodamine B assay relative to control; assay type: functional; details: THP-1, 48 h, read-out: GI
[13] = test system: COLO 205; assay: Cytotoxicity against human COLO205 cells assessed as growth inhibition after 48 hrs by sulforhodamine B assay; assay type: functional, cell-based; details: COLO 205, 48 h
[14] = test system: PC-3; assay: Cytotoxicity against human PC3 cells assessed as growth inhibition at 50 uM after 48 hrs by sulforhodamine B assay relative to control; assay type: functional; details: PC-3, 48 h, read-out: GI

With `COc1cc(/C=C/C(=O)/C=C/c2cc(OC)c(OC)c(OC)c2)ccc1OCc1cn(CCN2C(=O)C(=O)c3ccccc32)nn1` the inhibition of growth at 50 µM [1] was 20%, the inhibition of growth at 50 µM [2] was 25% and the Activity [3] was “Active”. For the same compound, the inhibition of growth at 50 µM [4] was 22%, the inhibition of growth at 50 µM [5] was 99% and the inhibition of growth at 50 µM [6] was 86%. The IC50 [7] was 5.67 µM, the IC50 [8] was 2.87 µM and the IC50 [9] was 2.36 µM. For the same compound, the IC50 [10] was 1.12 µM, the inhibition of growth at 50 µM [11] was 25% and the inhibition of growth at 50 µM [12] was 89%. The IC50 [13] was 4.15 µM and the inhibition of growth at 50 µM [14] was 85%.
`COc1cc(/C=C/C(=O)/C=C/c2cccc3ccccc23)ccc1OCc1cn(CCN2C(=O)C(=O)c3ccccc32)nn1` gave an inhibition of growth at 50 µM [1] of 10%, an inhibition of growth at 50 µM [2] of 14% and an inhibition of growth at 50 µM [4] of 10%. The inhibition of growth at 50 µM [5] was 89%, the inhibition of growth at 50 µM [6] was 80% and the IC50 [7] was 8.54 µM. It also gave an IC50 [8] of 6.15 µM, an IC50 [9] of 7.16 µM and an IC50 [10] of 4.79 µM. The inhibition of growth at 50 µM [11] was 11%, the inhibition of growth at 50 µM [12] was 83% and the IC50 [13] was 7.99 µM. The inhibition of growth at 50 µM [14] was 77%.
